The values that follow come from paper PMC10774165, “Correlating sugar transporter expression and activities to identify transporters for an orphan sugar substrate” (Applied Microbiology and Biotechnology, 2024).

What all share (type): cell-based
In assay [1] the target is T1, NCU00809 (Neurospora crassa, UniProt Q7SEC5).
T1 construct: full-length cDNA in p426H7, expressed in S. cerevisiae EBY.VW4000 with K. lactis LAC4
The experiment in a line: growth of transporter-expressing yeast on the sugar. As to conditions: S. cerevisiae EBY.VW4000.

A further assay addresses T2, NCU08052 (Neurospora crassa, UniProt Q7SGN1).
T2 construct: native protein in N. crassa mycelium, wild type versus deletion mutant
Kind of assay: glycerol uptake by N. crassa wild type versus deletion mutant. Particulars: after induction in arabinose, 20 min.

The target in another assay is T3, CDT-1 (Neurospora crassa, UniProt Q7SCU1).
T3 construct: full-length cDNA in p426H7, expressed in S. cerevisiae EBY.VW4000 (with K. lactis LAC4 for lactose)
The experiment in a line: growth of transporter-expressing yeast on the sugar as sole carbon source. As to conditions: 0.2% or 2% lactose, 30 °C, 3 days, coexpressed K. lactis Lac4; uptake also reduced in N. crassa deletion mutant.

A further assay has as its target T4, CDT-2 (Neurospora crassa, UniProt Q7SD12).
T4 construct: full-length cDNA in p426H7, expressed in S. cerevisiae EBY.VW4000 with K. lactis LAC4
The description is as above. Particulars: 0.2% or 2% lactose, 30 °C, 3 days, coexpressed K. lactis Lac4; uptake also reduced in N. crassa deletion mutant.

For assay [2], the target named is T1, NCU00809. The description is as above. Particulars: 0.2% or 2% lactose, 30 °C, 3 days, coexpressed K. lactis Lac4; uptake also reduced in N. crassa deletion mutant.

T1 sequence (Q7SEC5 1-547): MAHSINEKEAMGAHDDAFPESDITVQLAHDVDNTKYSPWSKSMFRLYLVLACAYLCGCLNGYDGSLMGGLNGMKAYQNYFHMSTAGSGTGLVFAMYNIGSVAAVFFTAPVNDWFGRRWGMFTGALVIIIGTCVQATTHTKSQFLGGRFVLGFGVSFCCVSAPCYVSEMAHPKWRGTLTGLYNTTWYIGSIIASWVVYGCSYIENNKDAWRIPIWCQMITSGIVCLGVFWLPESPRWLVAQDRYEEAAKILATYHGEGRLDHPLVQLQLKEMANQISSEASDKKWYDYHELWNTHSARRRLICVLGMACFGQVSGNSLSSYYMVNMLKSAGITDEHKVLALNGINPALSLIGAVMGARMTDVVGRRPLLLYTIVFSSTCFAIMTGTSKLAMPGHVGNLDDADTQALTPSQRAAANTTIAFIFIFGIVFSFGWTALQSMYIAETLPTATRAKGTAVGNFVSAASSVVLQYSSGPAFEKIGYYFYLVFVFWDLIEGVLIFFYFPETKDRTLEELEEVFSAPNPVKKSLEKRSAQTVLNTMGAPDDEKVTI
T2 sequence (Q7SGN1 entry or part of it): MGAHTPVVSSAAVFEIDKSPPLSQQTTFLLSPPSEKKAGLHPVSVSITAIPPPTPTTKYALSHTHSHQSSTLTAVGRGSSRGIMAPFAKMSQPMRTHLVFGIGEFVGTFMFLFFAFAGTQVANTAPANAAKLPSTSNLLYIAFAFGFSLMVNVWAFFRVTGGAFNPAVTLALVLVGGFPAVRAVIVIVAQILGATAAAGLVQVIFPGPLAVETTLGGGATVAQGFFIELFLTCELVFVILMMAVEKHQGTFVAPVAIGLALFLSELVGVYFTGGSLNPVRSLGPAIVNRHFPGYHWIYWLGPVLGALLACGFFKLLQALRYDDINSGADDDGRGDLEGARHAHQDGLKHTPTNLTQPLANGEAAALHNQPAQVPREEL
T3 sequence (Q7SCU1 entry or part of it): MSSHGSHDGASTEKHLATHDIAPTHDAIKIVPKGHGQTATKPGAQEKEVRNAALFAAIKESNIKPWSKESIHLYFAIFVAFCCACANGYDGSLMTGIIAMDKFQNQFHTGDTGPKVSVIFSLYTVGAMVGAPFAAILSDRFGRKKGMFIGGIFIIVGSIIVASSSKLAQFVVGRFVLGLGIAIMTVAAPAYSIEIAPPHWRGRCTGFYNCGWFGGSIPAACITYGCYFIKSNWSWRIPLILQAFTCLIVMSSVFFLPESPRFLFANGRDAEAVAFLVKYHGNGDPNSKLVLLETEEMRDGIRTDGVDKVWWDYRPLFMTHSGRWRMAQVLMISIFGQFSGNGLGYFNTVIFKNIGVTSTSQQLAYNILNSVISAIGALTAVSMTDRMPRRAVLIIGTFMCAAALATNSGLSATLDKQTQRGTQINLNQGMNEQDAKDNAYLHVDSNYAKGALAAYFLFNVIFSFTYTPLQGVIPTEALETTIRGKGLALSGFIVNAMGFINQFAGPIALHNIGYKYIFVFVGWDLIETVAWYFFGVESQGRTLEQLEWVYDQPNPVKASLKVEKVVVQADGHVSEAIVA
T4 sequence (Q7SD12 entry or part of it): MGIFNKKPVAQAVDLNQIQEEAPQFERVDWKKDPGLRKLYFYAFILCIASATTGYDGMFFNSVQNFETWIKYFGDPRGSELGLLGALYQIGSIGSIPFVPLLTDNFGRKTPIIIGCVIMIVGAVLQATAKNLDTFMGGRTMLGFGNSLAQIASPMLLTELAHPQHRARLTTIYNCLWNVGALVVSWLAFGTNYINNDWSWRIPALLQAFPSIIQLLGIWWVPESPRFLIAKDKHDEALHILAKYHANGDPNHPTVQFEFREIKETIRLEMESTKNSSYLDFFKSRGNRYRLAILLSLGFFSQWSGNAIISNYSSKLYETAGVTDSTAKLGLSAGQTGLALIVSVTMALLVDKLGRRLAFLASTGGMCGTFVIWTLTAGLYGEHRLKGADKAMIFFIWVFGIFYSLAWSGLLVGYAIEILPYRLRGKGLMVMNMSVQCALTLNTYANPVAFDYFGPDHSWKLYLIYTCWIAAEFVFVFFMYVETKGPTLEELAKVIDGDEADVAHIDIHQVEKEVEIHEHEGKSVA

With `OC[C@H]1OC(O)[C@H](O)[C@@H](O)[C@H]1O` (stereo partly drawn) [D-galactose], the “growth of transporter-expressing yeast on the sugar” value at NCU00809 [1] is reported as “NCU00809 was found to display transport activity for D-galactose”.

For `OCC(O)CO` [glycerol], the “glycerol uptake by N. crassa wild type versus deletion mutant” value on NCU08052 is “a significantly reduced uptake rate in the respective deletion mutant”. For the compound `OC[C@H]1O[C@@H](O[C@H]2[C@H](O)[C@@H](O)C(O)O[C@@H]2CO)[C@H](O)[C@@H](O)[C@H]1O` (stereo partly drawn) [lactose, β-D-galactopyranosyl-(1 → 4)-D-glucose], the “growth of transporter-expressing yeast on the sugar as sole carbon source” value at CDT-1, at CDT-2 and at NCU00809 [2] was “demonstrating that they are plasma membrane permeases that can transport lactose” throughout.
